Values after ≈ are worked out from the molar mass of the structure shown.
Columns and labels:
Mus musculus [1] = test: Teratogenic effect in Swiss Webster Vancouver mouse assessed as exencephaly at 520 mg/kg, ip; type: toxicity, organism-based; set-up: dose 520 mg/kg, route intraperitoneal; conditions: in vivo
Mus musculus [2] = test: Teratogenic effect in Swiss Webster Vancouver mouse assessed as embryo lethality at 520 mg/kg, ip; type: toxicity, organism-based; set-up: dose 520 mg/kg, route intraperitoneal; conditions: in vivo
Mus musculus [3] = organism: Mus musculus; test: Protective index, ratio of TD50 for Albino CF1 mouse to ED50 for Albino CF1 mouse by 6-Hz psychomotor seizure test at 32 mA current; type: functional
Mus musculus [4] = test: Teratogenic effect in Swiss Webster Vancouver mouse assessed as exencephaly at 336 mg/kg, ip; type: toxicity, organism-based; set-up: dose 336 mg/kg, route intraperitoneal; conditions: in vivo
Rattus norvegicus [5] = organism: Rattus norvegicus; test: Anticonvulsant activity in Sprague-Dawley rat by maximal electroshock seizure test; type: functional
[6] = Teratogenic effect in Swiss Webster Vancouver mouse assessed as embryo lethality at 336 mg/kg, ip; type: toxicity, organism-based; set-up: dose 336 mg/kg, route intraperitoneal; conditions: in vivo, read-out: Activity
Mus musculus [7] = organism: Mus musculus; test: Anticonvulsant activity in Albino CF1 mouse by 6-Hz psychomotor seizure test at 44 mA current; type: functional
[8] = Neurotoxicity in Sprague-Dawley rat by rotarod test; type: toxicity, organism-based; conditions: in vivo
Rattus norvegicus [9] = organism: Rattus norvegicus; test: Protective index, ratio of TD50 for Sprague-Dawley rat by rotarod test to ED50 for Sprague-Dawley rat by MES test; type: functional
Mus musculus [10] = test: Teratogenic effect in Swiss Webster Vancouver mouse assessed as exencephaly at 205 mg/kg, ip; type: toxicity, organism-based; set-up: dose 205 mg/kg, route intraperitoneal; conditions: in vivo
Rattus norvegicus [11] = organism: Rattus norvegicus; test: Protective index, ratio of TD50 for Sprague-Dawley rat by rotarod test to ED50 for Sprague-Dawley rat by scMET test; type: functional
Mus musculus [12] = organism: Mus musculus; test: Protective index, ratio of TD50 for Albino CF1 mouse to ED50 for Albino CF1 mouse by 6-Hz psychomotor seizure test at 44 mA current; type: functional
[13] = Neurotoxicity in Albino CF1 mouse by rotarod test; type: toxicity, organism-based; conditions: in vivo
Mus musculus [14] = test: Teratogenic effect in Swiss Webster Vancouver mouse assessed as embryo lethality at 205 mg/kg, ip; type: toxicity, organism-based; set-up: dose 205 mg/kg, route intraperitoneal; conditions: in vivo
Rattus norvegicus [15] = test: Anticonvulsant activity in Sprague-Dawley rat by subcutaneous pentylenetetrazole test; type: functional; conditions: sc
Mus musculus [16] = organism: Mus musculus; test: Anticonvulsant activity in Albino CF1 mouse by 6-Hz psychomotor seizure test at 32 mA current; type: functional
Mus musculus [17] = test: Teratogenic effect in Swiss Webster Vancouver mouse assessed as exencephaly at 503 mg/kg, ip; type: toxicity, organism-based; set-up: dose 503 mg/kg, route intraperitoneal; conditions: in vivo
Mus musculus [18] = test: Teratogenic effect in Swiss Webster Vancouver mouse assessed as embryo lethality at 503 mg/kg, ip; type: toxicity, organism-based; set-up: dose 503 mg/kg, route intraperitoneal; conditions: in vivo
[19] = Solubility in water; type: physicochemical
Mus musculus [20] = test: Induction of lethality in Swiss Webster Vancouver mouse dams at 1.8 mmol/kg, ip after 24 hrs; type: organism-based; conditions: in vivo
Mus musculus [21] = test: Induction of lethality in Swiss Webster Vancouver mouse dams at 2.7 mmol/kg, ip after 24 hrs; type: organism-based; conditions: in vivo
Mus musculus [22] = test: Teratogenic effect in Swiss Webster Vancouver mouse assessed as exencephaly at 261 mg/kg, ip; type: toxicity, organism-based; set-up: dose 261 mg/kg, route intraperitoneal; conditions: in vivo
Mus musculus [23] = test: Teratogenic effect in Swiss Webster Vancouver mouse assessed as embryo lethality at 167 mg/kg, ip; type: toxicity, organism-based; set-up: dose 167 mg/kg, route intraperitoneal; conditions: in vivo
Mus musculus [24] = test: Teratogenic effect in Swiss Webster Vancouver mouse assessed as embryo lethality at 261 mg/kg, ip; type: toxicity, organism-based; set-up: dose 261 mg/kg, route intraperitoneal; conditions: in vivo
Mus musculus [25] = test: Teratogenic effect in Swiss Webster Vancouver mouse assessed as exencephaly at 167 mg/kg, ip; type: toxicity, organism-based; set-up: dose 167 mg/kg, route intraperitoneal; conditions: in vivo
Mus musculus [26] = test: Induction of lethality in Swiss Webster Vancouver mouse dams at 3.6 mmol/kg, ip after 24 hrs; type: organism-based; conditions: in vivo

Structure (SMILES) | Ratio TD50/ED50 (Mus musculus [3]) | ED50 (Rattus norvegicus [5]) [mg/kg] | ED50 (Mus musculus [7]) [mg/kg] | TD50 [8] [mg/kg] | Ratio TD50/ED50 (Rattus norvegicus [9]) | Ratio TD50/ED50 (Rattus norvegicus [11]) | Ratio TD50/ED50 (Mus musculus [12]) | TD50 [13] [mg/kg] | ED50 (Rattus norvegicus [15]) [mg/kg] | ED50 (Mus musculus [16]) [mg/kg] | solubility [19] [µg/mL] | also measured
CCC[C@H](C(=O)O)C(C)C | – | – | – | – | – | – | – | – | – | – | – | Activity (Mus musculus [1]): 0%; Activity (Mus musculus [2]): 5.8%
CCC[C@@H](C(=O)NC(N)=O)C(C)C | 2.7 | 36 | 56 | 124 | 3.4 | 5.6 | 2.1 | 118 | 22 | 43 | – | Activity (Mus musculus [4]): 15.4%; mortality [6]: 54.4%; Activity (Mus musculus [10]): 0%; Activity (Mus musculus [14]): 7.1%; Activity (Mus musculus [17]): 17.5%; Activity (Mus musculus [18]): 65.7%
CCCC(C(=O)O)C(C)C (racemic) | >2 | – | – | – | – | – | – | > 300 | – | 149 | – | Activity (Mus musculus [1]): 0%; Activity (Mus musculus [2]): 5.5%
CCCC(C(N)=O)C(C)C (racemic) | – | 50 | – | 87 | 1.7 | 3.2 | – | – | 27 | – | – | –
CCCC(C(=O)NC(N)=O)C(C)C (racemic) | <2 | – | – | 95 | 5.9 | 2.1 | <1.4 | 50 | – | 42 | 130 (≈ 698 µM) | –
CCCC(CCC)C(=O)O [VALPROIC ACID] | – | – | – | – | – | – | – | – | – | – | 1300 (≈ 9010 µM) | –
CCC[C@@H](C(=O)O)C(C)C | – | – | – | – | – | – | – | – | – | – | – | Activity (Mus musculus [1]): 0%; Activity (Mus musculus [2]): 4.3%
CC(C)C(C(=O)NC(N)=O)C(C)C | <2.3 | – | 49 | – | 1.7 | 3.5 | <2 | > 50 | – | 43 | 270 (≈ 1450 µM) | –
CCCC(CCC)C(N)=O [VALPROMIDE] | – | – | – | – | – | – | – | – | – | – | 3700 (≈ 25800 µM) | –
CCC[C@@H](C(N)=O)C(C)C | – | 47 | – | 82 | 1.7 | 3.7 | – | – | 22 | – | – | –
CCCCCCCC(=O)NC(N)=O | – | > 300 | – | > 300 | 1.4 | 1.2 | – | – | > 300 | – | < 50 | –
CCC(C)C(CC)C(=O)NC(N)=O (configuration not stated) [CAPURIDE] | <4.7 | – | – | 97 | 4 | 6.9 | <2.1 | 50 | – | – | 280 (≈ 1500 µM) | Activity (Mus musculus [20]): Toxic; Activity (Mus musculus [10]): 2.7%; Activity (Mus musculus [21]): Toxic; Activity (Mus musculus [14]): 39%
CCC[C@H](C(N)=O)C(C)C | – | 63 | – | 83 | 1.3 | 2.2 | – | – | 38 | – | – | –
CCC[C@H](C(=O)NC(N)=O)C(C)C | <6.5 | 18 | 75 | 118 | 6.5 | 3.2 | <4 | 100 | 37 | 46 | – | Activity (Mus musculus [4]): 5.7%; mortality [6]: 10.2%; Activity (Mus musculus [10]): 0.8%; Activity (Mus musculus [14]): 6.8%; Activity (Mus musculus [17]): 4.3%; Activity (Mus musculus [18]): 40.7%
CCCC(CCC)C(=O)NC(N)=O | <1.7 | 54 | 105 | – | 4.3 | 3 | – | > 50 | 77 | 58 | 120 (≈ 644 µM) | Activity (Mus musculus [22]): 13.7%; Activity (Mus musculus [23]): 12.9%; Activity (Mus musculus [24]): 41.2%; Activity (Mus musculus [25]): 0.9%; Activity (Mus musculus [26]): Toxic
CC(C)C(C(N)=O)C(C)C | – | 51 | > 100 | 72 | 1.4 | 1.2 | – | – | 60 | > 100 | – | –
